Consider 55 compounds from BindingDB's records for doi:10.7270/Q23F4N3R (Burnham Center For Chemical Genomics, 2011).

A value given as a limit tells only on which side of the number the result lay.

In general, IC50 refers to the point on the concentration scale where inhibition reaches its midpoint.

One experiment can be described thus: hexokinase 1 inhibition, dose response, selectivity assay for HKDC1 inhibitor project, biochemical (AID 504763).
Details: not given
Take `O=C(O)c1ccc2ncsc2c1` [SMR000372672]: the IC50 was greater than 80 µM. The same measure, in the same setting: under `O=C(NC1=CC(=O)c2ccccc2C1=O)c1ccccc1` [N-(1,4-dioxo-2-naphthalenyl)benzamide] stands 4.01 µM; under `CC1=NOC(=O)/C1=C\c1ccc(-c2ccc(Cl)cc2Cl)o1` [4-{[5-(2,4-dichlorophenyl)-2-furyl]methylene}-3-methyl-5(4H)-isoxazolone], greater than 80 µM. Same read-out and setting: under `Cc1ccc(C)c(-n2nnnc2Sc2nnnn2-c2ccccc2)c1` [1-(2,5-dimethylphenyl)-5-(1-phenyltetrazol-5-yl)sulfanyltetrazole] stands greater than 80 µM.

In turn, `COC1=CC(/C=C(\C#N)c2nc3ccc(C)cc3[nH]2)C=C([N+](=O)[O-])C1=O` (stereo not given) [(2Z,3E)-3-(3-methoxy-5-nitro-4-oxocyclohexa-2,5-dien-1-ylidene)-2-(5-methyl-1,3-dihydrobenzimidazol-2-ylidene)propanenitrile] displayed an IC50 of 18 µM. Turning to `Cc1ccc(SC2=C(N(C)C)C(=O)c3ccccc3C2=O)cc1` [2-(dimethylamino)-3-[(4-methylphenyl)thio]naphthalene-1,4-dione], 19.7 µM corresponded to half-maximal inhibition (IC50). Same read-out and setting: next, `O=C(O)c1cc(N2N=C(C(F)(F)F)/C(=C/C=C/c3ccco3)C2=O)ccc1Cl` [2-chloro-5-[4-[3-(2-furyl)-2-propenylidene]-5-oxo-3-(trifluoromethyl)-4,5-dihydro-1H-pyrazol-1-yl]benzoic acid]: greater than 80 µM; `COC1=CC(=O)c2c(ccc3ncnc(N)c23)C1=O` [MLS002701780]: 1.83 µM.

In turn, `Cc1cc(Oc2ccc(C(C)(C)C)cc2)nc(N2CCOCC2)n1` [4-[4-(4-tert-butylphenoxy)-6-methylpyrimidin-2-yl]morpholine] came in with an IC50 greater than 80 µM. The same measure, in the same setting: next, `C=c1c(NC(C)=O)c(O)c2nc3n(c2c1O)CCC=3OC(=O)COC` [SMR001565176]: 2.15 µM; `Cc1cccc(N2C(=O)NC(=O)C(=Cc3ccc4c(c3)CCCN4Cc3ccccc3)C2=O)c1` [5-[1-(1-Benzyl-1,2,3,4-tetrahydro-quinolin-6-yl)-meth-(E)-ylidene]-1-m-tolyl-pyrimidine-2,4,6-trione]: greater than 80 µM. Same read-out and setting: under `Cc1cc(C=C2C(=O)NC(=O)N(c3ccc(Cl)cc3)C2=O)c(C)n1-c1sc2c(c1C#N)CCCC2` [SMR000211212] stands greater than 80 µM; under `Cc1cc(C)n2cc(CSc3nnc(-c4ccccc4)c(-c4ccccc4)n3)nc2n1` [2-[(5,6-diphenyl-1,2,4-triazin-3-yl)sulfanylmethyl]-5,7-dimethyl-imidazo[1,2-a]pyrimidine], 11.4 µM; under `O=c1c2ccccc2nc(/C=C/c2cccnc2)n1Cc1ccccc1` [MLS000709026], greater than 80 µM. Same read-out and setting: next, `CCc1ccc(S(=O)(=O)N=C2C=C(Nc3ccc(C(=O)O)cc3)C(=O)c3ccccc32)cc1`: 6.89 µM; `O=C1C(SCCO)=C(SCCO)C(=O)c2ccccc21` [NSC-95397]: 8.11 µM; `COc1ccc(OC)c(N2C(=O)C(=Cc3ccco3)C(=O)NC2=S)c1` [MLS001197216]: greater than 80 µM. Turning to `Cc1ccc(/N=C/C2=CC(Cc3ccccc3Cl)C=C([N+](=O)[O-])C2=O)c(O)c1` (stereo not given), the 50% inhibitory concentration (IC50) was greater than 80 µM. The same measure, in the same setting: under `CC(=O)NC1C(=O)N(CCN2CCOCC2)c2ccc(C)cc21` (stereo not given) [N-[5-methyl-1-(2-morpholin-4-ylethyl)-2-oxidanylidene-3H-indol-3-yl]ethanamide] stands greater than 80 µM; under `CCOC(=O)c1ccc(NC(=O)CSc2ccc(-c3ccccn3)nn2)cc1` [ethyl 4-[2-(6-pyridin-2-ylpyridazin-3-yl)sulfanylethanoylamino]benzoate], 2.15 µM. Regarding `O=C(NCCc1ccccc1)C(c1cccs1)N(C(=O)CCl)c1ccc(Cl)cc1` (stereo not given) [2-(4-chloro-N-(2-chloro-1-oxoethyl)anilino)-N-(2-phenylethyl)-2-thiophen-2-ylacetamide], the IC50 was greater than 80 µM. On the same count and under the same terms, next, `Cc1ccc2cc(CCNC(=O)c3ccc(S(=O)(=O)N4CCCCC4)cc3)c(O)nc2c1`: 6.04 µM. For the compound `O=C1C=C(N2CCOCC2)c2ccccc2C1=O` [SMR000516584], inhibition was half-maximal at 1.27 µM (IC50).

Turning to `Cc1cc(C)c(S(=O)(=O)Nc2cc(SCC(=O)O)c(O)c3ccccc23)cc1C` [2-[1-hydroxy-4-[(2,4,5-trimethylphenyl)sulfonylamino]naphthalen-2-yl]sulfanylacetic acid], the IC50 was found to be 14.2 µM. The same measure, in the same setting: under `CCOc1ccc(/C=C2/SC(=S)N(CCC(=O)Nc3ccc(C(=O)O)cc3)C2=O)cc1` [4-[3-[(5E)-5-[(4-ethoxyphenyl)methylidene]-4-oxo-2-sulfanylidene-1,3-thiazolidin-3-yl]propanoylamino]benzoic acid] stands greater than 80 µM. The same measure, in the same setting: under `CC(C)c1nc2oc3c(O)ncnc3c2c2c1COC(C)(C)C2` [MLS000779024] stands 5.26 µM. On the same count and under the same terms, under `[H]/N=C(\N/C(=N/[H])NCCCCCCNC(=N)NC(=N)Nc1ccc(Cl)cc1)Nc1ccc(Cl)cc1` [2-[amino-[6-[[amino-[(E)-[amino-(4-chloroanilino)methylidene]amino]methylidene]amino]hexylimino]methyl]-1-(4-chlorophenyl)guanidine] stands greater than 80 µM; under `CC(C)c1nc2oc3c(NCCO)ncnc3c2c2c1COC(C)(C)C2` [SMR000439744], 2.82 µM; under `CN1c2ccc(C=O)c3c(C=O)ccc(c23)N(C)C1(C)C` [1,2,2,3-tetramethyl-2,3-dihydro-1H-perimidine-6,7-dicarbaldehyde], 18.8 µM. `CCC(c1ccccc1)C(CC)c1cc(O)c(O)c(O)c1` (stereo not given) [5-(4-phenylhexan-3-yl)benzene-1,2,3-triol] came in with an IC50 greater than 80 µM.

Compound `CCc1ccc(S(=O)(=O)N=C2C=C(Nc3cccc(C(=O)O)c3)C(=O)c3ccccc32)cc1` [SMR000620248] registered an IC50 of 5.83 µM. Same read-out and setting: next, `Cc1cc2nnc(SCC(=O)Nc3cc(S(=O)(=O)N4CCOCC4)ccc3Cl)n2c2ccccc12` [N-(2-chloro-5-morpholin-4-ylsulfonylphenyl)-2-[(5-methyl-[1,2,4]triazolo[4,3-a]quinolin-1-yl)sulfanyl]acetamide]: 18 µM. `Cc1nc([N+](=O)[O-])c(Br)n1Cc1ccc(Cl)c(Cl)c1` [MLS000730654] gave an IC50 greater than 80 µM. With `Cn1c2ccccc2c(=O)c2c(=O)n(-c3ccc(F)cc3)c(-c3cccs3)nc21` [SMR000439524], the IC50 is 2.5 µM. Still for that read-out and setting: next, `COc1cc(/C=C2/C(=O)NN(c3ccc(Cl)c(Cl)c3)C2=O)cc([N+](=O)[O-])c1O` [SMR000554908]: greater than 80 µM; `CCc1ccc2c(c1)C(NC(C)=O)C(=O)N2CCN1CCOCC1` (stereo not given) [MLS001215951]: greater than 80 µM; `COc1ccc(NC(=O)CSc2ccc(-c3ccco3)nn2)c(OC)c1` [N-(2,4-dimethoxyphenyl)-2-[[6-(2-furanyl)-3-pyridazinyl]thio]acetamide]: 5.55 µM. Regarding `CC(C)(C=O)C1=CC(=O)c2ccccc2C1=O` [2-(1,4-dioxo-2-naphthalenyl)-2-methylpropanal], the concentration for half-maximal inhibition (IC50) is greater than 80 µM. Same read-out and setting: next, `CC(Nc1cc(O)c2cccnc2c1O)C(=O)c1ccccc1` (stereo not given): 75.1 µM; `CCOC(=O)CSc1nc2ccc(C)cc2n2cnnc12` [MLS000999625]: 12.9 µM.

As to `Cc1cc(C)n2nc(SCc3nnc(SCc4ccccc4C)s3)nc2n1` [5,7-dimethyl-2-[({5-[(2-methylbenzyl)sulfanyl]-1,3,4-thiadiazol-2-yl}methyl)sulfanyl][1,2,4]triazolo[1,5-a]pyrimidine], the IC50 came to 3.71 µM. The same measure, in the same setting: under `CC(=O)Nc1ccc(NC2=CC(=NS(=O)(=O)c3cccs3)c3ccccc3C2=O)cc1` [SMR000313158] stands 4.2 µM; under `COCc1cc(C2C(C(=O)c3ccco3)C(=O)C(=O)N2CCOCCO)ccc1O` (stereo not given) [3-(furan-2-carbonyl)-4-hydroxy-1-[2-(2-hydroxyethoxy)ethyl]-2-[4-hydroxy-3-(methoxymethyl)phenyl]-2H-pyrrol-5-one], greater than 80 µM; under `Oc1c(Cl)c(N=CCc2ccccc2)c(O)c2ccccc12` [MLS002608293], 18.5 µM.

The experiment is the same for the next values; noted with them: inactive by the depositor's call.
As for `COc1ccc(C(=O)c2coc3c2C(=O)C(=O)c2ccccc2-3)cc1` [3-(4-Methoxy-benzoyl)-naphtho[1,2-b]furan-4,5-dione], the IC50 came to 27.2 µM. On the same count and under the same terms, under `COC1=CC(=O)C(C2CC(=O)c3c(O)cc(O)cc3O2)=CC1=O` (stereo not given) [SMR001565628] stands 35.9 µM; under `Cc1ccc(C(=O)c2c(C)oc3c2C(=O)C(=O)c2ccccc2-3)cc1` [2-Methyl-3-(4-methyl-benzoyl)-naphtho[1,2-b]furan-4,5-dione], 21.5 µM.

The compound `COc1ccc(N2C3=C(CC4=C2CCCC4=O)C(=O)CCC3)cc1` [10-(4-methoxyphenyl)-3,4,6,7,9,10-hexahydro-1,8(2H,5H)-acridinedione] gave a half-inhibitory concentration (IC50) of 24 µM. The same measure, in the same setting: under `COc1ccc(S(=O)(=O)Nc2cc(SCC(=O)O)c(O)c3ccccc23)cc1` [[(1-hydroxy-4-{[(4-methoxyphenyl)sulfonyl]amino}-2-naphthyl)thio]acetic acid] stands 63.3 µM. Regarding `CCN(CC)CCNc1cc(C)nc2c1C(=O)C(=O)C=C2N1CCCCC1` [4-[2-(diethylamino)ethylamino]-2-methyl-8-piperidin-1-yl-quinoline-5,6-dione], the IC50 is 38.3 µM.

`Cc1oc2c(c1C(=O)c1ccccc1)C(=O)C(=O)c1ccccc1-2` [2-methyl-3-(phenylcarbonyl)benzo[g][1]benzofuran-4,5-dione] displayed an IC50 of 78.3 µM.

For the compound `O=C(O)CSc1cc(NS(=O)(=O)c2cccc([N+](=O)[O-])c2)c2ccccc2c1O` [2-[1-hydroxy-4-[(3-nitrophenyl)sulfonylamino]naphthalen-2-yl]sulfanylacetic acid], the IC50 is 29.4 µM. As to `CCCCNC(=O)c1sc(=S)n2c1[nH]c(=O)c1ccc(C(=O)NCCc3ccc(OC)c(OC)c3)cc12` [3-N-butyl-8-N-[2-(3,4-dimethoxyphenyl)ethyl]-5-oxo-1-sulfanylidene-4H-[1,3]thiazolo[3,4-a]quinazoline-3,8-dicarboxamide], the IC50 worked out at 21.2 µM. On to `Cc1cc(C)c(S(=O)(=O)N=C2C=C(Nc3ccc(C(=O)O)cc3)C(=O)c3ccccc32)c(C)c1` [MLS000948031], for which the IC50 stood at 27.3 µM. In turn, `CCOc1ccccc1Nc1nnc(SCc2nnc(-c3cc(OC)c(OC)c(OC)c3)o2)s1` [N-(2-ethoxyphenyl)-5-[[5-(3,4,5-trimethoxyphenyl)-1,3,4-oxadiazol-2-yl]methylthio]-1,3,4-thiadiazol-2-amine] showed an IC50 of 21.8 µM.
